Test results from patent US6528524B2, “Pharmaceutical compositions containing cinchonine dichlorhydrate” (Debiopharm SA, priority 1997, dated 2003).
Counter-ions that a name gives are not always drawn. Like-named read-outs stand apart in the source and are kept apart here.

Experiments:
[1] = cited from earlier work
[2] = In vivo bioavailability / pharmacokinetic study in Beagle dogs; design: C20 min: unit not given here; conditions: for T1/2 a / C20 min / half-life: dose 50 mg/kg; for T1/2 a / half-life: absorption; for C20 min: blood concentration 20 minutes after administration; for half-life: Beagle, dog, blood, read-out: T1/2 a
Method: These tests were performed in four “Beagle” dogs, two of which were male and two female.
Each dog received, on day 1, a dose of 50 mg per kg of cinchonine dihydrochloride and, on day 8, an equivalent dose of cinchonine monohydrochloride. Blood samples were taken at regular intervals after each administration.

[3] = Stability of cinchonine dihydrochloride in aqueous solution (NMR spectra day 0 vs day 30); type: physicochemical; conditions: aqueous solution kept at ambient temperature and in the light for 30 days
Method: The ^1H and ^13C spectra were built up using samples of 100 mg and 20 mg respectively in 0.5 ml of deuterated methanol.
The NMR spectra were obtained using a Bruker DRX 500 spectrometer fitted with a so-called “reversible” sensor.
The aqueous solution was kept at ambient temperature and in the light for 30 days. After 30 days, the NMR spectra were recorded in the same way as above.

[4] = Beagle dog F1 (female), monohydrochloride
[5] = Beagle dog F2 (female), monohydrochloride
[6] = Beagle dog M1 (male), monohydrochloride
[7] = Beagle dog M2 (male), monohydrochloride
[8] = Beagle dog F2 (female), dihydrochloride
[9] = Beagle dog M1 (male), dihydrochloride

Question: Which solubility in water [1] does the source give for `C=C[C@H]1C[N@@]2CC[C@H]1C[C@@H]2[C@@H](O)c1ccnc2ccccc12` [cinchonine] here?
Answer: Its solubility in water is “very sparingly soluble in water”.

Question: For `C=C[C@H]1C[N@@]2CC[C@H]1C[C@@H]2[C@@H](O)c1ccnc2ccccc12` [CMH, cinchonine monohydrochloride, reference compound], which T1/2 a [2, 4] is on record?
Answer: Its T1/2 a is 3 s.

Question: And the C20 min [2, 4]?
Answer: The C20 min was 1.04.

Question: What about the T1/2 a [2, 5] of the same compound?
Answer: The T1/2 a was 6.6 s.

Question: And the C20 min [2, 5]?
Answer: The C20 min was 1.66.

Question: What about the T1/2 a [2, 6] of the same compound?
Answer: Its T1/2 a is 3.6 s.

Question: What about the C20 min [2, 6] of the same compound?
Answer: The C20 min was 0.

Question: And the T1/2 a [2, 7]?
Answer: The T1/2 a was 14.4 s.

Question: What about the C20 min [2, 7] of the same compound?
Answer: Its C20 min is 0.25.

Question: With `C=C[C@H]1C[N@@]2CC[C@H]1C[C@@H]2[C@@H](O)c1ccnc2ccccc12` [CDH, cinchonine dihydrochloride] as the compound, how does the C20 min ([2]; Beagle dog F1 (female), dihydrochloride) read?
Answer: Its C20 min is 2.05.

Question: And the T1/2 a [2, 8]?
Answer: The T1/2 a was 20.4 s.

Question: And the C20 min [2, 8]?
Answer: The C20 min was 3.68.

Question: And the T1/2 a [2, 9]?
Answer: The T1/2 a was 15.6 s.

Question: What about the C20 min [2, 9] of the same compound?
Answer: The C20 min was 0.23.

Question: And the C20 min ([2]; Beagle dog M2 (male), dihydrochloride)?
Answer: Its C20 min is 2.1.

Question: And the “absorption time, compared with cinchonine monohydrochloride” value ([2]; Beagle dogs, 50 mg/kg)?
Answer: Its value is “greater than that of cinchonine monohydrochloride”.

Question: And the “blood concentration 20 minutes after administration, compared with cinchonine monohydrochloride” value ([2]; Beagle dogs, 50 mg/kg)?
Answer: The value was “greater than that of cinchonine monohydrochloride”.

Question: What about the half-life ([2]; female, 50 mg/kg, Beagle dog F1 (female)) of the same compound?
Answer: Its half-life is 6 s.

Question: And the half-life ([2]; male, 50 mg/kg, Beagle dog M2 (male))?
Answer: The half-life was 23.4 s.

Question: And the “Stability (NMR spectra on day 0 and day 30)” value ([3]; listed as Cinchonine dihydrochloride)?
Answer: The value was “remarkable stability”.

Question: And the “Stability (NMR spectra on day 0 and day 30)” value ([3]; listed as cinchonine dihydrochloride)?
Answer: The value was “unchanged”.
